Data taken from publication PMC5571211 (Scientific Reports, 2017).
Read-outs that look alike come from different tables or passages of the source.

Columns and labels:
[1] = test system: 5-LOX product formation (FLAP) in human monocytes; test: 5-LOX product formation in intact human monocytes stimulated with Ca2+-ionophore A23187; assay type: cell-based; settings: Monocyte, 5 h, read-out: IC50, formation of LTB4 and its isomers and of 5-H(p)ETE (5-LOX product formation)
Protocol: Peripheral blood (University Hospital Jena, Germany) was collected from fasted healthy adult donors that were informed about the aim of the study and gave written consent. The protocols for experiments with neutrophils or monocytes were approved by the ethical commission of the Friedrich-Schiller-University Jena (approval number 4292-12/14). All methods were performed in accordance with the relevant guidelines and regulations. Leukocyte concentrates were obtained by centrifugation (4000 × g, 20 min, 20 °C) of heparinized blood preparations. Neutrophils and monocytes were immediately isolated as described before. In brief, leukocyte concentrates were subjected to dextran sedimentation and centrifuged on lymphocyte separation medium (LSM 1077, PAA, Coelbe, Germany). For isolation of pelleted neutrophils, remaining erythrocytes were removed by hypotonic lysis, washed twice with ice-cold PBS and resuspended in medium to a cell density described for the respective experiments. […]
Human recombinant 5-LOX was expressed in E.coli BL21 transformed with pT3-5-LOX plasmid at 30 °C overnight as described before. […] After elution with methanol, samples were analyzed by RP-HPLC using a C-18 Radial-PAK column (Waters, Eschborn, Germany). […]

[2] = test system: zymosan-induced peritonitis; test: Zymosan-induced peritonitis mouse model; assay type: in vivo; settings: for myeloperoxidase activity / myeloperoxidase activity, % of vehicle control / leukocyte recruitment: 4 h after zymosan; for vascular permeability, % of vehicle control: 30 min after zymosan
Protocol: The animal studies are reported in accordance with the ARRIVE guidelines for reporting animal research. Male CD-1 mice (33–39 g, 8–9 weeks, Charles River Laboratories, Calco, Italy) were housed in a controlled environment (21 ± 2 °C) and provided with standard rodent chow and water ad libitum. Mice received a standard diet containing 5.7% fat, 18.9% protein and 57.3% carbohydrate (Global Diet 2018, ENVIGO, Italy). The fatty acid composition was according to Matias et al.[67].
Prior to experiments, all mice were allowed to acclimate for 5 days and kept at 12 h light–dark schedule, in which experiments were performed during the light phase. Animal care was in compliance with Italian regulations on protection of animals used for experimental and other scientific purpose (Ministerial Decree 116/92) and with the European Economic Community regulations (Official Journal of E.C. L 358/1 12/18/1986). Animal studies were approved by the local ethical committee of the University of Naples Federico II on 27 February 2014 (approval number 2014/18760). […] Zymosan (Sigma, Milan, Italy) was prepared and injected i.p. as a final suspension (2 mg/mL) in 0.9% saline solution after boiling, centrifugation and sonication. Peritoneal lavage (3 mL of cold PBS) was performed after CO2-euthanasia at indicated time points, followed by 60 sec of gentle manual massage. Two mL of exudates were collected and infiltrated cells were determined using a Burker chamber and vital trypan blue staining. Pelleted samples (18,000 × g, 5 min, 4 °C) were frozen (−80 °C) and assayed for myeloperoxidase (MPO) activity (pellet) or LTC4 and LTB4 formation (supernatant), respectively.
MPO of neutrophils was examined as follows: pellets from exudates were resuspended in PBS (50 mM, pH 6) containing 0.5% hexadecyltrimethyl-ammonium bromide and sonicated, followed by 3 freeze-thawing cycles and a final sonication. Supernatants of centrifuged samples (18,000 × g, 30 min) were added to a 96-well plate and reactions were initiated by addition of PBS (50 mM, pH 6) containing o-dianisidine (0.167 mg/mL) and hydrogen peroxide (0.0005%). Absorbance was monitored in the kinetic mode (Biorad Imark microplate) and levels of MPO were determined using a calibration curve with human neutrophils as reference standard. MPO levels were expressed as units MPO per mouse. LTC4 and LTB4 formation within the supernatants were determined by EIA (Enzo Life Sciences International Inc., Lörrach, Germany) according to manufacturer’s protocol.
Vascular permeability was assessed according to a previous report. Briefly, 0.3 mL of 0.9% saline solution supplemented with Evans blue dye (40 mg/kg) was injected intravenously (i.v.) into the caudal vein followed by immediate peritonitis induction (using zymosan). After 30 min, peritoneal lavage exudates of CO2-euthanized were collected as described above. Absorbance of the centrifuged supernatants (3,000 × g, 5 min) was measured at 650 nm (Beckman Coulter DU730).

mPGES-1 = target: T1, mPGES-1 (Homo sapiens, UniProt O14684); settings: cited from earlier work
T1 construct: A549 cells were cultivated in DMEM medium containing FCS (2%) and IL-1β (2 ng/mL) for 72 h; endogenous in cells; host or cells: A549 cells, IL-1β-induced, microsomal fraction
T1 sequence (O14684 1-152): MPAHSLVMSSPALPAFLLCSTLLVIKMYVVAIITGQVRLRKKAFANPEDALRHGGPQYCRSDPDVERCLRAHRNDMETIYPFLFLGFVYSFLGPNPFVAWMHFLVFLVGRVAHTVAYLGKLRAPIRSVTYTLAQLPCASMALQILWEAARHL

[3] = mice, 1 mg/kg i.p. 30 min before zymosan

| Compound | IC50 ([1]; intact human monocytes, Ca2+-ionophore A23187, no AA supplementation) [nM] | LTB4 peritoneal levels [2, 3] | LTC4 peritoneal levels [2, 3] | myeloperoxidase activity ([2]; mice, 1 mg/kg i.p.) [U/mL] | myeloperoxidase activity, % of vehicle control ([2]; mice, 1 mg/kg i.p.) | vascular permeability, % of vehicle control ([2]; mice, 3 mg/kg i.p.) | leukocyte recruitment ([2]; mice, MK886 i.p.) | inhibition of MAPEG family member mPGES-1 (mPGES-1) | IC50 ([1]; Homo sapiens) [nM] | vascular permeability, % of vehicle control ([2]; mice, 10 mg/kg i.p.) | myeloperoxidase activity ([2]; mice, 10 mg/kg i.p.) [U/mL] | myeloperoxidase activity, % of vehicle control ([2]; mice, 10 mg/kg i.p.) | LTC4 peritoneal levels ([2]; mice, 1, 3 and 10 mg/kg i.p. 30 min before zymosan, analysed 30 min after zymosan) | LTB4 peritoneal levels ([2]; mice, 1, 3 and 10 mg/kg i.p. 30 min before zymosan, analysed 4 h after zymosan) | leukocyte recruitment ([2]; mice, 1, 3 and 10 mg/kg i.p., dose-dependent) |
| --- | --- | --- | --- | --- | --- | --- | --- | --- | --- | --- | --- | --- | --- | --- | --- |
| CC(C)c1ccc2c(c1)c(SC(C)(C)C)c(CC(C)(C)C(=O)O)n2Cc1ccc(Cl)cc1 [MK886, 3-[1-(4-chlorobenzyl)-3-t-butyl-thio-5-isopropylindol-2-yl]-2,2 - dimethylpropanoic acid] | ~3 | comparable to the effect of MK886 | comparable to the effect of MK886 | 0.72 ± 0.13 | 58.5 ± 10.6 % of vehicle control | 48.6 ± 3.2 % of vehicle control | block of leukocyte recruitment | inhibit | – | – | – | – | – | – | – |
| Cc1cc(OCc2nc3ccccc3s2)ccc1NC(=O)Nc1ccc(Cl)c(Cl)c1 [diflapolin, N-[4-(benzothiazol-2-ylmethoxy)-2-methylphenyl]-N′-(3,4-dichlorophenyl)urea] | – | – | – | – | – | – | – | – | 30 | 55.7 ± 14.4 % of vehicle control | 0.65 ± 0.15 | 52.8 ± 12.2 % of vehicle control | significant reduction | significant reduction | block of leukocyte recruitment |
